Where two headings read alike, the source gives them in different places.
Assays:
[1] = tested on: S. maltophilia
Method: (§1) Antimicrobial activity was assayed for all the peptide–peptoids against P. aeruginosa PAO1, K. pneumoniae NCTC418, E. coli W3110, A. baumannii ATCC 19606, methicillin-resistant S. aureus COL (MRSA), and for selected peptides on P. aeruginosa PA14 and the polymyxin-B-resistant derivatives PA14 4.13, PA14 4.18, PA14 2P4, as well as the clinical isolates ZEM-1A and ZEM9A, K. pneumoniae OXA-48, S. aureus Newman, Enterobacter cloacae, Stenotrophomonas maltophilia, Burkholderia cenocepacia, and Staphylococus epidermidis. To determine the Minimal Inhibitory Concentration (MIC), the Broth Microdilution method was used.[72] A colony of bacteria was picked and grown in LB medium overnight at 37 °C.
(§2) To each well was finally added 4 μL of the diluted bacterial suspension (see above), corresponding to approximately 5 × 10^5 CFU. For each test, two columns of the plate were kept for sterility control (medium only), growth control (medium with bacterial inoculum, no compound). The positive control, Polymyxin B (starting with a concentration of 16 μg/mL) in MH medium with bacterial inocula, was introduced in the two lines of the plate. […] Next, 15 μL of 3-(4,5-dimethylthiazol-2-yl)-2,5-diphenyltetrazolium bromide (MTT)[73] (1 mg/mL in sterilized MilliQ deionized water) were added to each well, and the plates were incubated for 20–30 min at room temperature. The minimal inhibitory concentration (MIC) was defined as the lowest concentration of the compound that inhibits the visible growth of the tested bacteria (yellow) with the unaided eye.

[2] = tested on: S. epidermis
Method: as §1, §2

[3] = tested on: B. cenocepacia; settings: MH pH 7.4, 16–20 h at 37 °C
Method: as §1, §2

[4] = tested on: P. aeruginosa PA14
Method: as §1, §2

[5] = tested on: S. aureus Newman
Method: as §1, §2

[6] = tested on: human red blood cells (hRBC); assay: Minimum hemolytic concentration (MHC); type: cell-based; settings: hRBC, 10 mM phosphate buffer, 150 mM NaCl, pH 7.4, 25 °C, 4 h
Text: We also measured minimal hemolysis concentrations (MHC) on human red blood cells by serial 2-fold dilution as an indication of toxicity against eukaryotic cells (Table 1).

[7] = tested on: P. aeruginosa PAO1; assay: Bacterial count after treatment, before TEM sample preparation; type: cell-based, Pseudomonas aeruginosa; settings: P. aeruginosa PAO1, […] MH pH 8.5, 10x MIC
Method: (§3) Just before the samples were further prepared for the microscopy, surviving bacteria were quantified by plating 10-fold dilutions of samples in sterilized normal saline (NaCl 0.9%) on LB agar plates. […] The assay was performed in triplicate. Each bacteria sample was centrifuged at 12,000 rpm for 3 min, and the supernatant was discarded. The samples were then further processed and imaged using our previously described protocol.[64]
8. Transmission electron microscopy (TEM)
Table S4: Bacterial counts, 2 hours after treatment, before TEM sample preparation. Data represents triplicates.
Bacteria count after treatment at 10x MIC and 2 h of incubation at 37 °C
Control (non-treated cells) 1 × 10^8 CFU (100)

[8] = tested on: K. pneumoniae NCTC418; settings: Table S2
Method: as §1
(§4) To each well was finally added 4 μL of the diluted bacterial suspension (see above), corresponding to approximately 5 × 10^5 CFU. For each test, two columns of the plate were kept for sterility control (medium only), growth control (medium with bacterial inoculum, no compound). The positive control, Polymyxin B (starting with a concentration of 16 μg/mL) in MH medium with bacterial inocula, was introduced in the two lines of the plate. The plates were incubated at 37 °C for ca. 18 h under static conditions. Next, 15 μL of 3-(4,5-dimethylthiazol-2-yl)-2,5-diphenyltetrazolium bromide (MTT)[73] (1 mg/mL in sterilized MilliQ deionized water) were added to each well, and the plates were incubated for 20–30 min at room temperature. The minimal inhibitory concentration (MIC) was defined as the lowest concentration of the compound that inhibits the visible growth of the tested bacteria (yellow) with the unaided eye.

[9] = tested on: PA14 2P4 (pmrB); settings: Table S3; […] MH at pH 8.5
Method: as §1, §4

[10] = tested on: E. coli W3110
Method: as §1, §4

[11] = tested on: S. aureus COL (MRSA)
Method: as §1, §4

[12] = tested on: PA14 4.13 (phoQ)
Method: as §1, §4

[13] = tested on: PA14 4.18 (pmrB)
Method: as §1, §4

[14] = tested on: K. pneumoniae OXA-48
Method: as §1, §4

[15] = tested on: ZEM-1A (clinical MDR P. aeruginosa isolate)
Method: as §1, §4

[16] = tested on: E. cloacae
Method: as §1, §4

[17] = tested on: A. baumannii ATCC19606; settings: Table S2
Method: as §1, §4

[18] = tested on: P. aeruginosa PAO1
Method: as §1, §4

[19] = tested on: ZEM9A (clinical MDR P. aeruginosa isolate)
Method: as §1, §4

[20] = tested on: P. aeruginosa PAO1; assay: Transmission electron microscopy (TEM); type: cell-based, Pseudomonas aeruginosa; settings: P. aeruginosa PAO1, 10 × MIC, […] MH at pH 8.5, 2 h at 37 °C
Method: Scale bars are 500 nm and 1 μm. Red arrows: membrane perturbations. Blue arrows: intracellular aggregation. Yellow arrows: empty area within the cell.
as §3

Polymyxin B [PMB, reference compound]
MIC S. maltophilia ([1]; MH pH 7.4, 16–20 h at 37 °C): 0.5 µg/mL
MIC S. maltophilia ([1]; Table S3, […] MH at pH 8.5): 2 µg/mL
MIC S. epidermis ([2]; MH pH 7.4, 16–20 h at 37 °C): >16 µg/mL
MIC S. epidermis ([2]; Table S3, […] MH at pH 8.5): 2 µg/mL
MIC B. cenocepacia [3]: >16 µg/mL
MIC P. aeruginosa PA14 ([4]; MH pH 7.4, 16–20 h at 37 °C): <0.13 µg/mL
MIC P. aeruginosa PA14 ([4]; Table S3, […] MH at pH 8.5, 16-20 hours at 37 °C): 0.25 µg/mL
MIC S. aureus Newman ([5]; MH pH 7.4, 16–20 h at 37 °C): >16 µg/mL
MIC S. aureus Newman ([5]; Table S3, […] MH at pH 8.5): 2 µg/mL
MHC ([6]; Table S2): > 2000 µg/mL
MHC [6]: >2000 µg/mL
Bacteria count after treatment at 10x MIC and 2 h of incubation at 37 °C (% of control) [7]: 1 % of control
MIC K. pneumoniae NCTC418 […] 7.4 ([8]; […] MH, pH 7.4): 0.5 µg/mL
MIC K. pneumoniae NCTC418 […] 8.5 ([8]; […] MH, pH 8.5): 0.5 µg/mL
MIC K. pneumoniae NCTC418 Full MH 7.4 ([8]; full MH, pH 7.4): 0.25 µg/mL
MIC K. pneumoniae NCTC418 Full MH 8.5 ([8]; full MH, pH 8.5): 0.25 µg/mL
MIC P. aeruginosa PA14 2P4 [9]: 1 µg/mL
Antibacterial activity as a function of NaCl concentration ([10]; E. coli W3110, […] MH at pH 8.5, up to 300 mM NaCl): less affected
MIC E. coli W3110 […] 7.4 ([10]; Table S2, […] MH, pH 7.4): 0.5 µg/mL
MIC E. coli W3110 […] 8.5 ([10]; Table S2, […] MH, pH 8.5): 0.25 µg/mL
MIC E. coli W3110 Full MH 7.4 ([10]; Table S2, full MH, pH 7.4): 0.25 µg/mL
MIC E. coli W3110 Full MH 8.5 ([10]; Table S2, full MH, pH 8.5): < 0.1 µg/mL
MIC S. aureus COL (MRSA) […] 7.4 ([11]; Table S2, […] MH, pH 7.4): 8 µg/mL
MIC S. aureus COL (MRSA) […] 8.5 ([11]; Table S2, […] MH, pH 8.5): 1 µg/mL
MIC S. aureus COL (MRSA) Full MH 7.4 ([11]; Table S2, full MH, pH 7.4): > 64 µg/mL
MIC S. aureus COL (MRSA) Full MH 8.5 ([11]; Table S2, full MH, pH 8.5): 2 µg/mL
MIC S. aureus COL (MRSA) Full ([11]; full MH, pH 7.4, 16–20 h at 37 °C): >32 µg/mL
MIC PA14 4.13 (phoQ) ([12]; MH pH 7.4, 16–20 h at 37 °C): 0.25 µg/mL
MIC P. aeruginosa PA14 4.13 ([12]; Table S3, […] MH at pH 8.5): 0.5 µg/mL
MIC PA14 4.18 (pmrB) ([13]; MH pH 7.4, 16–20 h at 37 °C): 1 µg/mL
MIC P. aeruginosa PA14 4.18 ([13]; Table S3, […] MH at pH 8.5): 0.25 µg/mL
MIC K. pneumoniae OXA-48 ([14]; MH pH 7.4, 16–20 h at 37 °C): 1 to 2 µg/mL
MIC K. pneumoniae OXA-48 ([14]; Table S3, […] MH at pH 8.5): 1 to 2 µg/mL
MIC ZEM-1A ([15]; MH pH 7.4, 16–20 h at 37 °C): <0.13 µg/mL
MIC P. aeruginosa ZEM-1A ([15]; Table S3, […] MH at pH 8.5): 1 µg/mL
MIC E. cloacae ([16]; MH pH 7.4, 16–20 h at 37 °C): 0.5 to 1 µg/mL
MIC E. cloacae ([16]; Table S3, […] MH at pH 8.5): 1 to 2 µg/mL
MIC A. baumannii ATCC19606 […] 7.4 ([17]; […] MH, pH 7.4): 0.5 µg/mL
MIC A. baumannii ATCC19606 […] 8.5 ([17]; […] MH, pH 8.5): 0.25 µg/mL
MIC A. baumannii ATCC19606 Full MH 7.4 ([17]; full MH, pH 7.4): 0.25 µg/mL
MIC A. baumannii ATCC19606 Full MH 8.5 ([17]; full MH, pH 8.5): 0.25 µg/mL
Antibacterial activity as a function of NaCl concentration ([18]; P. aeruginosa PAO1, […] MH at pH 8.5, up to 300 mM NaCl): less affected
MIC P. aeruginosa PAO1 […] 7.4 ([18]; Table S2, […] MH, pH 7.4): 0.5 µg/mL
MIC P. aeruginosa PAO1 […] 8.5 ([18]; Table S2, […] MH, pH 8.5): 0.5 µg/mL
MIC P. aeruginosa PAO1 Full MH 7.4 ([18]; Table S2, full MH, pH 7.4): 0.5 µg/mL
MIC P. aeruginosa PAO1 Full MH 8.5 ([18]; Table S2, full MH, pH 8.5): 0.25 µg/mL
MIC P. aeruginosa PAO1 […] ([18]; diluted MH ([…] MH, pH 8.5) per Table 1 footnote b, 16–20 h at 37 °C): 0.5 µg/mL
MIC ZEM9A ([19]; MH pH 7.4, 16–20 h at 37 °C): 2 µg/mL
MIC P. aeruginosa ZEM9A ([19]; Table S3, […] MH at pH 8.5): 1 to 2 µg/mL
TEM micrographs, changes in treated bacteria [20]: blebbing and a disrupted outer membrane
